# Results published in patent US12448369B2 (Edgewise Therapeutics, Inc., priority 2023, dated 2025).
# Biological target: T1, Porcine ventricle myofibrils (ventricular myosin ATPase) (Sus scrofa, UniProt P79293)
# T1 construct: Myofibrils from porcine cardiac muscle was isolated from the left ventricle of Yucatan minipigs; tissue Exemplar Genetics; host or cells: left ventricle of Yucatan minipigs, myofibrils prepared in house
# Assay: Myofibril ATPase assay, porcine ventricle myofibrils
# Assay type: biochemical, porcine (Yucatan minipigs)
# Conditions: porcine ventricle myofibrils; Y75 value
# Method in brief: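 Read-out: A340 kinetic, NADH consumption coupled to ADP via PK-LDH, 75 min. Yucatan minipig LV myofibrils, pCa buffer (PIPES/CaCl2/EGTA, pH 7.0). Linear-regression slope (mAU/min), vehicle = 100%, 4PL fit; Y75 or Y125 reported.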
# T1 sequence (P79293 whole entry): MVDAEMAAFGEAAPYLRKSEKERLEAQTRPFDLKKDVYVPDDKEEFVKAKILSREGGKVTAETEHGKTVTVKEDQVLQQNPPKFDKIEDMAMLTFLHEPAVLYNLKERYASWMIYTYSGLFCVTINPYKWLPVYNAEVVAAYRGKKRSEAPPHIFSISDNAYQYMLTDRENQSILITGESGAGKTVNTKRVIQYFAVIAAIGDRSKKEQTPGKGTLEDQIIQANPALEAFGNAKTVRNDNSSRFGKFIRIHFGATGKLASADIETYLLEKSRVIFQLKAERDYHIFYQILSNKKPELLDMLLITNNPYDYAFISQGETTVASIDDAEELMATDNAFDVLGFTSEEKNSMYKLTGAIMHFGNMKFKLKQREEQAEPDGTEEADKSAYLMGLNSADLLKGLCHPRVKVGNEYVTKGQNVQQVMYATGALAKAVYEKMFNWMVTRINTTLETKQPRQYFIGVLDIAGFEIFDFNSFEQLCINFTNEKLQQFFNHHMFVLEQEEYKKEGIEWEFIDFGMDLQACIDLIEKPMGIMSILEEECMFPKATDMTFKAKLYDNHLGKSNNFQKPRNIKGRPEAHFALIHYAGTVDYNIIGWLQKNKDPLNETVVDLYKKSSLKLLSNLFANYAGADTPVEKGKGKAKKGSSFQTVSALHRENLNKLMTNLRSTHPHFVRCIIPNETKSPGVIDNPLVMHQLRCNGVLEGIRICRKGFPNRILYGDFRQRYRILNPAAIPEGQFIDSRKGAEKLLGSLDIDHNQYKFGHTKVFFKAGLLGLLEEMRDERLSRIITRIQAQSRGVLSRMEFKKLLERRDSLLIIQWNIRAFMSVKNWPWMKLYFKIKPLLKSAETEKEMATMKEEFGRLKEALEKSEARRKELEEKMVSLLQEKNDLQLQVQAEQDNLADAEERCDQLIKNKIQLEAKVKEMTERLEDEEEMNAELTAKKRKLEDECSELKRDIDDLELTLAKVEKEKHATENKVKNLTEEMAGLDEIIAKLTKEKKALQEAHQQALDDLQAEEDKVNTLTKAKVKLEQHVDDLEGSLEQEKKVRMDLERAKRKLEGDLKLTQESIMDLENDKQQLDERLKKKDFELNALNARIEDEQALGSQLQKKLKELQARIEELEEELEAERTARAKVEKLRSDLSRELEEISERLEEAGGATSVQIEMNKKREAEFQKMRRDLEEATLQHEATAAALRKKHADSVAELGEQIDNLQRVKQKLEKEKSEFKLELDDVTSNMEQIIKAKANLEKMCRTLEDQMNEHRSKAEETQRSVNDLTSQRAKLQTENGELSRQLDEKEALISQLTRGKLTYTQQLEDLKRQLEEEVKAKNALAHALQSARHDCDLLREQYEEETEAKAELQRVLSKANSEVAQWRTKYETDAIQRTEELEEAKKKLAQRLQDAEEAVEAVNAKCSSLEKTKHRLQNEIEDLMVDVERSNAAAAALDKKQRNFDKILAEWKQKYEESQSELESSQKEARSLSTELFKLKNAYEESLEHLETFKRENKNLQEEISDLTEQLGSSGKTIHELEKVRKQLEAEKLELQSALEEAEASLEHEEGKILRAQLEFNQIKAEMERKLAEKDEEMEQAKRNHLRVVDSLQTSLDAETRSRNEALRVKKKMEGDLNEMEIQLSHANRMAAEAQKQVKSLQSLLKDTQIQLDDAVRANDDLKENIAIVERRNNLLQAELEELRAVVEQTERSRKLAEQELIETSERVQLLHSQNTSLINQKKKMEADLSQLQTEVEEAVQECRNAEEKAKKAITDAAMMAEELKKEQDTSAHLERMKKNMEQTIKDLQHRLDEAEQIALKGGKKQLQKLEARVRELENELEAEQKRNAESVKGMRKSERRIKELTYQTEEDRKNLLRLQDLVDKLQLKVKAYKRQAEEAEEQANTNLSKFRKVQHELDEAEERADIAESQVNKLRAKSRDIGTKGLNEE
row,SMILES,Ventricular EC25
1,Cc1c(CC(=O)N[C@@H](C)c2ccc(C#N)cc2F)c(=O)[nH]c2ccnc(C(F)(F)F)c12 [compound 162],0.11 µM
2,Cc1nccc2[nH]c(=O)c(CC(=O)N[C@@H](C)c3ccc(F)cc3F)c(C)c12 [compound 433],0.64 µM
3,"Cc1nccc2[nH]c(=O)c(CC(=O)N[C@H](C)c3ccc(C#N)cc3F)c(C)c12 (single isomer, unassigned) [compound 255]",1.77 µM
4,Cc1c(CC(=O)N[C@@H](C)c2ccc(F)cc2F)c(=O)[nH]c2ccnc(OCC(C)C)c12 [compound 371],100.00 µM
5,C[C@H](NC(=O)Cc1cc2nc(C(F)(F)F)ccc2[nH]c1=O)c1ccc(F)cc1F [compound 397],32.40 µM
6,"Cc1nc(C#N)cnc1[C@H](C)NC(=O)C(F)(F)c1c(C)c2c(C)nccc2[nH]c1=O (single isomer, unassigned) [compound 3505]",13.00 µM
7,"Cc1nccc2[nH]c(=O)c(CC(=O)N[C@@H]3COc4cc(F)cc(F)c43)c(C)c12 (single isomer, unassigned) [compound 288]",0.27 µM
8,Cc1nccc2[nH]c(=O)c(CC(=O)N[C@H](C)c3cnc(C#N)cn3)c(C)c12 [compound 486],1.47 µM
9,Cc1nccc2[nH]c(=O)c(CC(=O)N[C@@H](C)c3ccc(C#N)nn3)c(C)c12 [compound 485],100.00 µM
10,"CCOc1nccc2[nH]c(=O)c([C@@H](C)C(=O)N[C@@H](C)c3ccc(F)cc3F)c(C(F)(F)F)c12 (single isomer, unassigned) [compound 416]",100.00 µM
11,CCN(CC)c1nccc2[nH]c(=O)c(CC(=O)N[C@@H](C)c3ccc(F)cc3F)c(C)c12 [compound 343],9.62 µM
12,"CCOc1nccc2[nH]c(=O)c([C@H](C)C(=O)N[C@@H](C)c3ccc(F)cc3F)c(C(F)(F)F)c12 (single isomer, unassigned) [compound 415]",12.58 µM
13,"Cc1c(C(F)(F)C(=O)N[C@@H](CO)c2ncc(C#N)cc2F)c(=O)[nH]c2ccnc(C#N)c12 (single isomer, unassigned) [compound 3504]",4.90 µM
14,"C[C@@H](NC(=O)Cc1c(C(F)(F)F)c2c(C3CC3)nccc2[nH]c1=O)c1ccc(C#N)cn1 (single isomer, unassigned) [compound 3005]",100.00 µM

# Same assay, conditions: ‡ Y125 value, not a Y75 value (125% activity relative to no compound); porcine ventricle myofibrils
row,SMILES,Ventricular EC25
1,"C[C@H](NC(=O)C(F)(F)c1cc2cc(F)ccc2[nH]c1=O)c1cccc(C#N)n1 (single isomer, unassigned) [compound 2582]",68.39‡ μM

# Test system: Porcine atria myofibrils (atrial myosin ATPase)
# Assay: Myofibril ATPase assay, porcine atria myofibrils
# Assay type: biochemical
# Conditions: porcine atria myofibrils; Y75 value (75% activity relative to no compound)
# Method in brief: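 Coupled PK-LDH readout, NADH loss at 340 nm, kinetic 75 min. Porcine atria myofibrils, pCa buffer (PIPES/CaCl2/EGTA, pH 7.0). Slopes (mAU/min) normalized to vehicle = 100%, 4-parameter fit; Y75 or Y125 reported.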
row,SMILES,Atrial EC25
1,Cc1c(CC(=O)N[C@@H](C)c2ccc(C#N)cc2F)c(=O)[nH]c2ccnc(C(F)(F)F)c12 [compound 162],0.13 µM
2,Cc1nccc2[nH]c(=O)c(CC(=O)N[C@@H](C)c3ccc(F)cc3F)c(C)c12 [compound 433],0.15 µM
3,"Cc1nccc2[nH]c(=O)c(CC(=O)N[C@H](C)c3ccc(C#N)cc3F)c(C)c12 (single isomer, unassigned) [compound 255]",1.30 µM
4,Cc1c(CC(=O)N[C@@H](C)c2ccc(F)cc2F)c(=O)[nH]c2ccnc(OCC(C)C)c12 [compound 371],3.04 µM
5,C[C@H](NC(=O)Cc1cc2nc(C(F)(F)F)ccc2[nH]c1=O)c1ccc(F)cc1F [compound 397],100.00 µM
6,"Cc1nc(C#N)cnc1[C@H](C)NC(=O)C(F)(F)c1c(C)c2c(C)nccc2[nH]c1=O (single isomer, unassigned) [compound 3505]",1.90 µM
7,"Cc1nccc2[nH]c(=O)c(CC(=O)N[C@@H]3COc4cc(F)cc(F)c43)c(C)c12 (single isomer, unassigned) [compound 288]",0.08 µM
8,Cc1nccc2[nH]c(=O)c(CC(=O)N[C@H](C)c3cnc(C#N)cn3)c(C)c12 [compound 486],1.49 µM
9,Cc1nccc2[nH]c(=O)c(CC(=O)N[C@@H](C)c3ccc(C#N)nn3)c(C)c12 [compound 485],48.27 µM
10,"CCOc1nccc2[nH]c(=O)c([C@@H](C)C(=O)N[C@@H](C)c3ccc(F)cc3F)c(C(F)(F)F)c12 (single isomer, unassigned) [compound 416]",100.00 µM
11,CCN(CC)c1nccc2[nH]c(=O)c(CC(=O)N[C@@H](C)c3ccc(F)cc3F)c(C)c12 [compound 343],2.39 µM
12,"CCOc1nccc2[nH]c(=O)c([C@H](C)C(=O)N[C@@H](C)c3ccc(F)cc3F)c(C(F)(F)F)c12 (single isomer, unassigned) [compound 415]",2.22 µM
13,"Cc1c(C(F)(F)C(=O)N[C@@H](CO)c2ncc(C#N)cc2F)c(=O)[nH]c2ccnc(C#N)c12 (single isomer, unassigned) [compound 3504]",0.77 µM
14,"C[C@@H](NC(=O)Cc1c(C(F)(F)F)c2c(C3CC3)nccc2[nH]c1=O)c1ccc(C#N)cn1 (single isomer, unassigned) [compound 3005]",100.00 µM

# Same assay, conditions: ‡ Y125 value, not a Y75 value (125% activity relative to no compound); porcine atria myofibrils
row,SMILES,Atrial EC25
1,"C[C@H](NC(=O)C(F)(F)c1cc2cc(F)ccc2[nH]c1=O)c1cccc(C#N)n1 (single isomer, unassigned) [compound 2582]",100.00‡ μM

# Test system: Rabbit Psoas myofibrils (skeletal myosin ATPase)
# Assay: Myofibril ATPase assay, rabbit psoas (skeletal) myofibrils
# Assay type: biochemical
# Conditions: rabbit psoas myofibrils; Y75 value
# Method in brief: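 Readout: A340 decline from NADH oxidation, PK/LDH-coupled to ADP release; kinetic reads over 75 min. Buffer: pCa (PIPES, CaCl2, EGTA), pH 7.0. Linear-regression slopes vs vehicle, 4PL fit; reported as concentration giving 75% (Y75) or 125% (Y125) of vehicle activity.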
row,SMILES,Skeletal EC25
1,Cc1c(CC(=O)N[C@@H](C)c2ccc(C#N)cc2F)c(=O)[nH]c2ccnc(C(F)(F)F)c12 [compound 162],0.02 µM
2,Cc1nccc2[nH]c(=O)c(CC(=O)N[C@@H](C)c3ccc(F)cc3F)c(C)c12 [compound 433],0.03 µM
3,"Cc1nccc2[nH]c(=O)c(CC(=O)N[C@H](C)c3ccc(C#N)cc3F)c(C)c12 (single isomer, unassigned) [compound 255]",0.71 µM
4,Cc1c(CC(=O)N[C@@H](C)c2ccc(F)cc2F)c(=O)[nH]c2ccnc(OCC(C)C)c12 [compound 371],0.37 µM
5,C[C@H](NC(=O)Cc1cc2nc(C(F)(F)F)ccc2[nH]c1=O)c1ccc(F)cc1F [compound 397],1.87 µM
6,"Cc1nc(C#N)cnc1[C@H](C)NC(=O)C(F)(F)c1c(C)c2c(C)nccc2[nH]c1=O (single isomer, unassigned) [compound 3505]",4.70 µM
7,"Cc1nccc2[nH]c(=O)c(CC(=O)N[C@@H]3COc4cc(F)cc(F)c43)c(C)c12 (single isomer, unassigned) [compound 288]",0.02 µM
8,Cc1nccc2[nH]c(=O)c(CC(=O)N[C@H](C)c3cnc(C#N)cn3)c(C)c12 [compound 486],0.20 µM
9,Cc1nccc2[nH]c(=O)c(CC(=O)N[C@@H](C)c3ccc(C#N)nn3)c(C)c12 [compound 485],100.00 µM
10,"CCOc1nccc2[nH]c(=O)c([C@@H](C)C(=O)N[C@@H](C)c3ccc(F)cc3F)c(C(F)(F)F)c12 (single isomer, unassigned) [compound 416]",0.46 µM
11,CCN(CC)c1nccc2[nH]c(=O)c(CC(=O)N[C@@H](C)c3ccc(F)cc3F)c(C)c12 [compound 343],1.55 µM
12,"CCOc1nccc2[nH]c(=O)c([C@H](C)C(=O)N[C@@H](C)c3ccc(F)cc3F)c(C(F)(F)F)c12 (single isomer, unassigned) [compound 415]",0.13 µM
13,"Cc1c(C(F)(F)C(=O)N[C@@H](CO)c2ncc(C#N)cc2F)c(=O)[nH]c2ccnc(C#N)c12 (single isomer, unassigned) [compound 3504]",1.04 µM
14,"C[C@@H](NC(=O)Cc1c(C(F)(F)F)c2c(C3CC3)nccc2[nH]c1=O)c1ccc(C#N)cn1 (single isomer, unassigned) [compound 3005]",100.00 µM

# Same assay, conditions: ‡ Y125 value, not a Y75 value (125% activity relative to no compound); rabbit psoas myofibrils
row,SMILES,Skeletal EC25
1,"C[C@H](NC(=O)C(F)(F)c1cc2cc(F)ccc2[nH]c1=O)c1cccc(C#N)n1 (single isomer, unassigned) [compound 2582]",75.10‡ μM
